Measurements: patent US11744814B2, “Methods and pharmaceutical preparations for elevating blood hemoglobin and oxygen saturation levels with hydroxycitric acid” (GLYKON TECHNOLOGIES GROUP, LLC, priority 2020, dated 2023)

What was measured:
pancreatic alpha-amylase = target: T1, pancreatic alpha-amylase (Homo sapiens, UniProt P04746); settings: background statement, in vitro; cited from earlier work
T1 sequence (P04746 16-511): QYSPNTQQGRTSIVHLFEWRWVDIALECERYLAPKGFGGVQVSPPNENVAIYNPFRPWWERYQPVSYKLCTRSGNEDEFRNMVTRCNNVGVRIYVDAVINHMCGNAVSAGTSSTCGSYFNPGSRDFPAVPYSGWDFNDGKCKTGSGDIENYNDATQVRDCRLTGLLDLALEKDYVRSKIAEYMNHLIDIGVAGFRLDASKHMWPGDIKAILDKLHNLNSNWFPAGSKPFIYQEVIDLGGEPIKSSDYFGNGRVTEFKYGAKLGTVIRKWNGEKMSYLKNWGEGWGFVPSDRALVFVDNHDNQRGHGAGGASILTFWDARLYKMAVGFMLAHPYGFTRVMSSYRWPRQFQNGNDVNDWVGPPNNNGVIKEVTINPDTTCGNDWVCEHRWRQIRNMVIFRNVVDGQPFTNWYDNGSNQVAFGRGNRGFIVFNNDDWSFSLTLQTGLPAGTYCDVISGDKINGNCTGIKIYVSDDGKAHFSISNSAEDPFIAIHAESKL

[1] = test system: intestinal alpha-glucosidase; settings: background statement, in vitro; cited from earlier work
[2] = fNIRS measurement of blood hemoglobin and oxygen saturation after the Example 1 formulation; assay type: in vivo, human; settings: conclusion over the examples, HCA administration
Experimental: Subjects 1-4 were orally administered the formulation of Example 1. The Subjects were given either one or two administrations of 8.33 ml of the aqueous formulation of Example 1 on an empty stomach, i.e. wherein with each 8.33 ml the subject received 2,500 mg of the potassium-magnesium (−)-hydroxycitric acid salt, corresponding to 1745 mg of (−)-hydroxycitric acid.
fNIRS testing (functional Near Infrared Spectroscopy) was used to measure blood hemoglobin and oxygen saturation. fNIRS can be used to determine real-time peripheral and cerebral hemodynamic responses. For example, relative changes in HbR (deoxygen saturation), HbO (oxygen saturation), and HbT (total hemoglobin concentration), etc. can be determined via application of Modified Beer Lambert Law. HbR, Hb=deoxygen saturation (shown as the thinnest and bottom dashed line in FIG. 1) HbO, HbO2=oxygen saturation (shown as the medium-thickness and middle line in FIG. 1) HbT=total hemoglobin concentration (shown as the darkest, thickest and top line in FIG. 1). On the graphs, time is in seconds.

[3] = Blood levels of biomolecules before and 90 minutes after the Example 1 formulation; assay type: in vivo, human; settings: conclusion over the examples, HCA administration
Experimental: Subject 5 was a person, weighing approximately 285 pounds and with a normal fasting blood sugar level of 115-120. First, blood was drawn from Subject 5 and levels of various biomolecules were measured. Next, Subject 5 was administered 16.66 ml of the Example 1 formulation on an empty stomach, i.e. wherein with each 16.66 ml the subject received 5,000 mg of the potassium-magnesium (−)-hydroxycitric acid salt, corresponding to 3490 mg of (−)-hydroxycitric acid. 90 minutes after the administration, blood was drawn from Subject 5 and levels of the various biomolecules were remeasured.
Subject 6 was administered 16.66 ml of the Example 1 formulation on an empty stomach, i.e. wherein with each 16.66 ml the subject received 5,000 mg of the potassium-magnesium (−)-hydroxycitric acid salt, corresponding to 3490 mg of (−)-hydroxycitric acid. 90 minutes after the administration, blood was drawn from Subject 6 and levels of the various biomolecules were remeasured.

ATP citrate lyase = target: T2, ATP citrate lyase (Homo sapiens, UniProt P53396); settings: background statement; cited from earlier work
T2 sequence (P53396 1-1101): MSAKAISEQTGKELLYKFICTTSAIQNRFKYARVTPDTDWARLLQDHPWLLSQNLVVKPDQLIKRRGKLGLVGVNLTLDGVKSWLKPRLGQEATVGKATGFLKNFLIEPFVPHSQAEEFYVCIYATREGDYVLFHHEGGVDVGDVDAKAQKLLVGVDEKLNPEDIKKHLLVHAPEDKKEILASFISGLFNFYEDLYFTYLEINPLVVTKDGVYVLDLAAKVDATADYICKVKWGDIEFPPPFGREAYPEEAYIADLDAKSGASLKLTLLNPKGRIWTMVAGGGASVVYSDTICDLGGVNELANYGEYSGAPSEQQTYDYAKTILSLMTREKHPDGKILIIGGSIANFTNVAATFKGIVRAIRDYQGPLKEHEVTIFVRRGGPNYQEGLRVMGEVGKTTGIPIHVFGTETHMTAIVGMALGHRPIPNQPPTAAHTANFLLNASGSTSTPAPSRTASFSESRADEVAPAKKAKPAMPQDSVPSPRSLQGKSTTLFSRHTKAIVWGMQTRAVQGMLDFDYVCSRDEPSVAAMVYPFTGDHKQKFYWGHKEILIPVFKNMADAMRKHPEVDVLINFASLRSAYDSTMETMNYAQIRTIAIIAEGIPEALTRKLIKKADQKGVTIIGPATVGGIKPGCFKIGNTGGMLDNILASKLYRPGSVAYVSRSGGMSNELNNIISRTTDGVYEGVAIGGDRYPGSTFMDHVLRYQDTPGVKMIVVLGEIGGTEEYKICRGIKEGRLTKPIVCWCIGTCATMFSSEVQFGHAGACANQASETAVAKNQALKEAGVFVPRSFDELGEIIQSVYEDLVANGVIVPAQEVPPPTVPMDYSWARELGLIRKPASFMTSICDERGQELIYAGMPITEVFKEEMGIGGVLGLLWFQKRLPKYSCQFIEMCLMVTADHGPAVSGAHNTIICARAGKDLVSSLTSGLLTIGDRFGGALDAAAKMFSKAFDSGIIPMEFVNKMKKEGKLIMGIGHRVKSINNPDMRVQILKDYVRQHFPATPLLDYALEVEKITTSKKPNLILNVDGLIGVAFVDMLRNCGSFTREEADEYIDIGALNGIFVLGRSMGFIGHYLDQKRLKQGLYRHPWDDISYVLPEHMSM

O=C(O)C[C@](O)(C(=O)O)[C@H](O)C(=O)O [(2S,3R)-HCA]
inhibition of pancreatic alpha-amylase (pancreatic alpha-amylase): inhibits
inhibition of intestinal alpha-glucosidase [1]: inhibits

O=C(O)CC(O)(C(=O)O)C(O)C(=O)O (stereo not drawn) [HCA, 1,2-dihydroxypropane-1,2,3-tricarboxylic acid]
blood hemoglobin [2]: increased
oxygen saturation [2]: increased
cortisol [3]: decreased
levels of ketones [3]: relatively stable or slightly lower
triglycerides [3]: decreased
glucose ([3]; in some cases transient): increased
inhibition of ATP citrate lyase (ATP citrate lyase): competitive inhibitor
